What was measured:
[1] = Cmax in Sprague-Dawley rat at 4 mg/kg, po administered 1 hr post GF-120918 treatment; format: ADME, organism-based; set-up: dose 4 mg/kg, route oral; details: in vivo, with GF-120918
[2] = Half life in Sprague-Dawley rat at 4 mg/kg, po administered 1 hr post GF-120918 treatment; format: ADME, organism-based; set-up: dose 4 mg/kg, route oral; details: in vivo, with GF-120918
[3] = Apparent oral clearance in Sprague-Dawley rat at 4 mg/kg, po administered 1 hr post GF-120918 treatment; format: ADME, organism-based; set-up: dose 4 mg/kg, route oral; details: in vivo, with GF-120918
[4] = Oral steady-state volume of distribution in Sprague-Dawley rat at 4 mg/kg administered 1 hr post GF-120918 treatment; format: ADME, organism-based; set-up: dose 4 mg/kg; details: in vivo, with GF-120918, read-out: Vss/F
[5] = Mean residence time in Sprague-Dawley rat at 4 mg/kg, po administered 1 hr post GF-120918 treatment; format: ADME, organism-based; set-up: dose 4 mg/kg, route oral; details: in vivo, with GF-120918
[6] = Oral bioavailability in Sprague-Dawley rat at 4 mg/kg administered 1 hr post GF-120918 treatment; format: ADME, organism-based; details: in vivo, with GF-120918
[7] = AUC (0 to 24 hrs) in beagle dog at 5 mg/kg, po; format: ADME, organism-based, Canis lupus familiaris; set-up: time < 24 hr, dose 5 mg/kg, route oral; details: plasma
[8] = Cmax in beagle dog at 5 mg/kg, po; format: ADME, organism-based, Canis lupus familiaris; set-up: dose 5 mg/kg, route oral; details: in vivo
[9] = Plasma concentration in beagle dog at 5 mg/kg, po at 8 hrs; format: ADME, organism-based, Canis lupus familiaris; set-up: dose 5 mg/kg, route oral
[10] = Half life in beagle dog at 5 mg/kg, po; format: ADME, organism-based, Canis lupus familiaris; set-up: dose 5 mg/kg, route oral; details: in vivo
[11] = Apparent oral clearance in beagle dog at 5 mg/kg, po; format: ADME, organism-based, Canis lupus familiaris; set-up: dose 5 mg/kg, route oral; details: in vivo
[12] = Oral steady-state volume of distribution in beagle dog at 5 mg/kg; format: ADME, organism-based, Canis lupus familiaris; set-up: dose 5 mg/kg; details: in vivo, read-out: Vss/F
[13] = Mean residence time in beagle dog at 5 mg/kg, po; format: ADME, organism-based, Canis lupus familiaris; set-up: dose 5 mg/kg, route oral; details: in vivo
[14] = Oral bioavailability in beagle dog at 5 mg/kg; format: ADME, organism-based, Canis lupus familiaris; details: in vivo
[15] = AUC (0 to 24 hrs) in beagle dog at 5 mg/kg, po followed by activated charcoal administration 0.25 hrs post compound dosing; format: ADME, organism-based, Canis lupus familiaris; set-up: time < 24 hr, dose 5 mg/kg, route oral; details: plasma
[16] = Cmax in beagle dog at 5 mg/kg, po followed by activated charcoal administration 0.25 hrs post compound dosing; format: ADME, organism-based, Canis lupus familiaris; set-up: dose 5 mg/kg, route oral; details: in vivo
[17] = Plasma concentration in beagle dog at 5 mg/kg, po followed by activated charcoal administration 0.25 hrs post compound dosing measured at 8 hrs; format: ADME, organism-based, Canis lupus familiaris; set-up: dose 5 mg/kg, route oral
[18] = Half life in beagle dog at 5 mg/kg, po followed by activated charcoal administration 0.25 hrs post compound dosing; format: ADME, organism-based, Canis lupus familiaris; set-up: dose 5 mg/kg, route oral; details: in vivo
[19] = Apparent oral clearance in beagle dog at 5 mg/kg, po followed by activated charcoal administration 0.25 hrs post compound dosing; format: ADME, organism-based, Canis lupus familiaris; set-up: dose 5 mg/kg, route oral; details: in vivo
[20] = Oral steady-state volume of distribution in beagle dog at 5 mg/kg followed by activated charcoal administration 0.25 hrs post compound dosing; format: ADME, organism-based, Canis lupus familiaris; set-up: dose 5 mg/kg; details: in vivo, read-out: Vss/F
[21] = Mean residence time in beagle dog at 5 mg/kg, po followed by activated charcoal administration 0.25 hrs post compound dosing; format: ADME, organism-based, Canis lupus familiaris; set-up: dose 5 mg/kg, route oral; details: in vivo
[22] = Oral bioavailability in beagle dog at 5 mg/kg followed by activated charcoal administration 0.25 hrs post compound dosing; format: ADME, organism-based, Canis lupus familiaris; details: in vivo
[23] = AUC (0 to 24 hrs) in beagle dog at 5 mg/kg, po followed by activated charcoal administration 1 hr post compound dosing; format: ADME, organism-based, Canis lupus familiaris; set-up: time < 24 hr, dose 5 mg/kg, route oral; details: plasma
[24] = Cmax in beagle dog at 5 mg/kg, po followed by activated charcoal administration 1 hr post compound dosing; format: ADME, organism-based, Canis lupus familiaris; set-up: dose 5 mg/kg, route oral; details: in vivo
[25] = Plasma concentration in beagle dog at 5 mg/kg, po followed by activated charcoal administration 1 hr post compound dosing measured at 8 hrs; format: ADME, organism-based, Canis lupus familiaris; set-up: dose 5 mg/kg, route oral
[26] = Half life in beagle dog at 5 mg/kg, po followed by activated charcoal administration 1 hr post compound dosing; format: ADME, organism-based, Canis lupus familiaris; set-up: dose 5 mg/kg, route oral; details: in vivo
[27] = Apparent oral clearance in beagle dog at 5 mg/kg, po followed by activated charcoal administration 1 hr post compound dosing; format: ADME, organism-based, Canis lupus familiaris; set-up: dose 5 mg/kg, route oral; details: in vivo
[28] = Oral steady-state volume of distribution in beagle dog at 5 mg/kg followed by activated charcoal administration 1 hr post compound dosing; format: ADME, organism-based, Canis lupus familiaris; set-up: dose 5 mg/kg; details: in vivo, read-out: Vss/F
[29] = Mean residence time in beagle dog at 5 mg/kg, po followed by activated charcoal administration 1 hr post compound dosing; format: ADME, organism-based, Canis lupus familiaris; set-up: dose 5 mg/kg, route oral; details: in vivo
[30] = Oral bioavailability in beagle dog at 5 mg/kg followed by activated charcoal administration 1 hr post compound dosing; format: ADME, organism-based, Canis lupus familiaris; details: in vivo
[31] = AUC (0 to 24 hrs) in beagle dog at 5 mg/kg, po followed by activated charcoal administration 3 hrs post compound dosing; format: ADME, organism-based, Canis lupus familiaris; set-up: time < 24 hr, dose 5 mg/kg, route oral; details: plasma
[32] = Cmax in beagle dog at 5 mg/kg, po followed by activated charcoal administration 3 hrs post compound dosing; format: ADME, organism-based, Canis lupus familiaris; set-up: dose 5 mg/kg, route oral; details: in vivo
[33] = Plasma concentration in beagle dog at 5 mg/kg, po followed by activated charcoal administration 3 hrs post compound dosing measured at 8 hrs; format: ADME, organism-based, Canis lupus familiaris; set-up: dose 5 mg/kg, route oral

Compound: COc1ccc(-n2nc(C(N)=O)c3c2C(=O)N(c2ccc(N4CCCCC4=O)cc2)CC3)cc1
- Cmax [1]: 2870 ng/mL
- half-life [2]: 1.6 h
- CL/F [3]: 5 mL/min/kg
- Vd/F [4]: 0.7 L/kg
- MRT [5]: 2.1 h
- bioavailability [6]: 140%
- AUC(0-t) at 24 h [7]: 78600 ng·h/mL
- Cmax [8]: 9350 ng/mL
- concentration at 8 h [9]: 5230 ng/mL
- half-life [10]: 5.7 h
- CL/F [11]: 1 mL/min/kg
- Vd/F [12]: 0.5 L/kg
- MRT [13]: 8.5 h
- bioavailability [14]: 93%
- AUC(0-t) at 24 h [15]: 59500 ng·h/mL
- Cmax [16]: 8420 ng/mL
- concentration at 8 h [17]: 2820 ng/mL
- half-life [18]: 4.2 h
- CL/F [19]: 1.37 mL/min/kg
- Vd/F [20]: 0.5 L/kg
- MRT [21]: 6.4 h
- bioavailability [22]: 92%
- AUC(0-t) at 24 h [23]: 63900 ng·h/mL
- Cmax [24]: 8990 ng/mL
- concentration at 8 h [25]: 3380 ng/mL
- half-life [26]: 4 h
- CL/F [27]: 1.28 mL/min/kg
- Vd/F [28]: 0.5 L/kg
- MRT [29]: 5.9 h
- bioavailability [30]: 99%
- AUC(0-t) at 24 h [31]: 49200 ng·h/mL
- Cmax [32]: 8070 ng/mL
- concentration at 8 h [33]: 2190 ng/mL
